Laboratory results reported in patent publication US20100298402A1, “STILBENE DERIVATIVES AS PSTAT3/IL-6 INHIBITORS” (ORCHID RESEARCH LABORATORIES LIMITED, priority 2007, published 2010).

Columns and labels:
[1] = test system: HCT 116 (colon), NCIH460 (lung) and U251 (glioma) cell lines; assay: Anti-cancer screen (MTT growth inhibition, 48 hours); type: cell-based; settings: Homo sapiens; HCT 116, NCIH460 and U251 cell lines; MTT after 48 hours of incubation;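 note: mean GI50 across the three cell lines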
Protocol: The experimental drugs were screened for anti-cancer activity in three cell lines using five concentrations for each compound. The cell lines—HCT 116 (colon), NCIH460 (lung) and U251 (glioma) were maintained in DMEM containing 10% fetal bovine serum. 96-well microtiter plates are inoculated with cells in 100 μL of cell suspension (5×10^4 cells/mL) for 24 hours at 37° C., 5% CO2, 95% air and 100% relative humidity. A separate plate with these cell lines is also inoculated to determine cell viability before the addition of the compounds (T0)
Following 24-hour incubation, test compounds were added to the 96 well plates. Each plate contains one of the above cell lines and the following samples in triplicate: five different dilutions (0.01, 0.1, 1, 10 and 100 μM) of four test compounds, appropriate dilutions of a cytotoxic standard and growth medium (untreated) wells. Test compounds were dissolved in DMSO to prepare 20 mM stock solutions on the day of drug addition and serial dilutions were carried out in complete growth medium at 2× strength, such that 100 μL added to the wells gave final concentrations (0.01, 0.1, 1, 10 and 100 μM) in the well. SAHA was used as the standard drug in these experiments.
For T0 measurement, 24 hours after seeding the cells, 20 μL of 3-(4,5-dimethyl-2-thiazolyl)-2,5-diphenyl-2H-tetrazolium (MTT) solution per well was added to the ‘T0’ plate and incubated for 3 hours at 37° C. in a CO2 incubator. The plate containing cells and test compounds was treated similarly after 48 hours of incubation. After 3 hours of MTT addition, well contents were aspirated carefully followed by addition of 150 μL DMSO per well. Plates were agitated to ensure dissolution of the formazan crystals in DMSO and absorbance was read at 570 nm (A570).
Percent growth (PG) is calculated relative to the control and zero measurement wells (T0) as follows:
PG values are plotted against drug concentration to derive the following: GI50 is the concentration required to decrease PG by 50% vs control; TGI is the concentration required to decrease PG by 100% vs control and LC50 is the concentration required to decrease PG by 50% vs T0. (Mosmann T. Rapid colorimetric assay for cellular growth and survival: application to proliferation and cytotoxicity assays. (J. Immunol. Methods. 1983, 65 (1-2), 55-63; Anne Monks et al); feasibility of high-flux anticancer drug screen using a diverse panel of cultured human tumor cell lines”. (JNCI, Vol. 83, No. 11, 1991). Results for growth inhibition of synthesized compounds are given in Table-1.

[2] = test system: IL-6 in supernatant of NCIH 460 cells; assay: Measuring IL-6 in culture supernatants (ELISA); type: cell-based; settings: Homo sapiens, NCI-H460, 5 hours incubation

SMILES	GI50 [1] [µM]	inhibition at 10 µM [2] [%]
COC(=O)/C(=C/c1cc(OC)cc(OC)c1)c1ccc(OCC(O)CNCc2ccc(OC)cc2OC)cc1 (stereo not drawn) [Example 3, 2-{4-[3-(2,4-Dimethoxybenzylamino)-2-hydroxypropoxyl]phenyl}-3-(3,5-dimethoxyphenyl)acrylic acid methyl ester]	4.1	67
COC(=O)/C(=C/c1cc(OC)cc(OC)c1)c1ccc(OCC(O)CNCc2ccc(OC(F)(F)F)cc2)cc1 (stereo not drawn) [Example 4]	32.4	–
COC(=O)/C(=C/c1cc(OC)c(OC)c(OC)c1)c1ccc(OCC(O)CNCc2ccc(OC)cc2OC)cc1 (stereo not drawn) [Example 6, 2-{4-[3-(2,4-Dimethoxybenzylamino)-2-hydroxypropoxyl]phenyl}-3-(3,4,5-trimethoxyphenyl)acrylic acid methyl ester]	5.2	73
COC(=O)/C(=C/c1cc(OC)c(OC)c(OC)c1)c1ccc(OCC(O)CNCc2ccc(OC(F)F)cc2)cc1 (stereo not drawn) [Example 8, 2-{4-[3-(4-Difluoromethoxybenzylamino)-2-hydroxypropoxyl]phenyl}-3-(3,4,5-trimethoxyphenyl)acrylic acid methyl ester]	3.6	44
COC(=O)/C(=C/c1ccc(F)c(OC)c1)c1ccc(OCC(O)CNCc2ccc(OC)cc2OC)cc1 (stereo not drawn) [Example 9, 2-{4-[3-(2,4-Dimethoxybenzylamino)-2-hydroxypropoxyl]phenyl}-3-(4-fluoro-3-methoxyphenyl)acrylic acid methyl ester]	> 100	34
COC(=O)/C(=C/c1ccc(OCC(O)CNCc2ccc(OC)cc2OC)cc1)c1ccc(OC)cc1 (stereo not drawn) [Example 12, 3-{4-[3-(2,4-Dimethoxybenzylamino)-2-hydroxypropoxyl]phenyl}-2-(4-methoxyphenyl)acrylic acid methyl ester]	3	55
COC(=O)/C(=C/c1ccc(OC)c(OC)c1)c1ccc(OCC(O)CNCc2ccc(OC)cc2OC)cc1 (stereo not drawn) [Example 13, 2-{4-[3-(2,4-Dimethoxybenzylamino)-2-hydroxypropoxyl]phenyl}-3-(3,4,-dimethoxyphenyl)acrylic acid methyl ester]	3.5	67
COC(=O)/C(=C/c1ccc(F)c(F)c1)c1ccc(OCC(O)CNCc2ccc(OC)cc2OC)cc1 (stereo not drawn) [Example 15, 2-{4-[3-(2,4-Dimethoxybenzylamino)-2-hydroxypropoxyl]phenyl}-3-(3,4-difluorophenyl)acrylic acid methyl ester]	2.8	44
COC(=O)/C(=C/c1cc(OC)cc(OC)c1)c1ccc(OCC(O)CNCc2ccccc2)cc1 (stereo not drawn) [Example 18, 2-{4-[3-(Benzylamino)-2-hydroxypropoxy]phenyl}-3-(3,5-dimethoxyphenyl)acrylic acid methyl ester]	5.3	25
COC(=O)/C(=C/c1cc(OC)cc(OC)c1)c1ccc(OCC(O)CNCc2ccc(F)cc2)cc1 (stereo not drawn) [Example 20, 2-{4-[3-(4-Fluorobenzylamino)-2-hydroxypropoxy]phenyl}-3-(3,5-dimethoxyphenyl)acrylic acid methyl ester]	16.8	0
COC(=O)/C(=C/c1ccc(Cl)cc1)c1ccc(OCC(O)CNCc2ccc(OC)cc2OC)cc1 (stereo not drawn) [Example 22, 2-{4-[3-(2,4-Dimethoxybenzylamino)-2-hydroxypropoxy]phenyl}-3-(4-chlorophenyl)acrylic acid methyl ester]	16.1	59.8
COC(=O)/C(=C/c1ccccc1)c1ccc(OCC(O)CNCc2ccccc2)cc1 (stereo not drawn) [Example 24, 2-{4-[3-(Benzylamino)-2-hydroxypropoxy]phenyl}-3-phenylacrylic acid methyl ester]	15.5	0
COC(=O)/C(=C/c1ccc(SC)cc1)c1ccc(OCC(O)CNCc2ccc(OC)cc2OC)cc1 (stereo not drawn) [Example 28, 2-{4-[3-(2,4-Dimethoxybenzylamino)-2-hydroxypropoxy]phenyl}-3-(4-(methylthio)phenyl)acrylic acid methyl ester]	1.3	78.5

Second part, led by results:

GI50 [1] [µM]	SMILES	inhibition at 10 µM [2] [%]
3.1	COC(=O)/C(=C/c1cc(OC)cc(OC)c1)c1ccc(OCC(O)CNCCOc2ccccc2OC)cc1 (stereo not drawn) [Example 5, 2-{4-[3-(2-Methoxyphenoxyethylamino)-2-hydroxypropoxyl]phenyl}-3-(3,5-dimethoxyphenyl)acrylic acid methyl ester]	37
2.2	COC(=O)/C(=C/c1ccc(F)c(OC)c1)c1ccc(OCC(O)CNCCOc2ccccc2OC)cc1 (stereo not drawn) [Example 7, 2-{4-[3-(2-Methoxyphenoxyethylamino)-2-hydroxypropoxyl]phenyl}-3-(4-fluoro-3-methoxyphenyl)acrylic acid methyl ester]	58
35.3	COC(=O)/C(=C/c1ccc(OCC(O)CNCc2ccc(F)cc2)cc1)c1ccccc1 (stereo not drawn) [Example 10, 3-{4-[3-(4-Fluorobenzylamino)-2-hydroxypropoxyl]phenyl}-2-phenylacrylic acid methyl ester]	4.5
37.3	COC(=O)/C(=C/c1cc(OC)c(OC)c(OC)c1)c1ccc(OCC(O)CNCCOc2ccccc2OC)cc1 (stereo not drawn) [Example 11, 2-{4-[3-(2-Methoxyphenoxyethylamino)-2-hydroxypropoxyl]phenyl}-3-(3,4,5-trimethoxyphenyl)acrylic acid methyl ester]	29
4	COC(=O)/C(=C/c1ccc(OC)c(OC)c1)c1ccc(OCC(O)CNCCOc2ccccc2OC)cc1 (stereo not drawn) [Example 14, 2-{4-[3-(2-Methoxyphenoxyethylamino)-2-hydroxypropoxyl]phenyl}-3-(3,4,-dimethoxyphenyl)acrylic acid methyl ester]	38
3.1	COC(=O)/C(=C/c1ccc(OCC(O)CNCc2ccc(OC)cc2OC)cc1)c1ccccc1 (stereo not drawn) [Example 16, 3-{4-[3-(2,4-Dimethoxybenzylamino)-2-hydroxypropoxyl]phenyl}-2-phenyl acrylic acid methyl ester]	68
3.4	COC(=O)/C(=C/c1ccccc1)c1ccc(OCC(O)CNCc2ccc(OC)cc2OC)cc1 (stereo not drawn) [Example 17, 2-{4-[3-(2,4-Dimethoxybenzylamino)-2-hydroxypropoxy]phenyl}-3-phenylacrylic acid methyl ester]	25
4.9	COC(=O)/C(=C/c1ccc(F)c(C)c1)c1ccc(OCC(O)CNCCOc2ccccc2OC)cc1 (stereo not drawn) [Example 19, 2-{4-[3-(2-Methoxyphenoxyethylamino)-2-hydroxypropoxy]phenyl}-3-(4-fluoro-3-methylphenyl)acrylic acid methyl ester]	15.9
13.1	COC(=O)/C(=C/c1ccc(F)c(C)c1)c1ccc(OCC(O)CNCc2ccccc2)cc1 (stereo not drawn) [Example 21, 2-{4-[3-(Benzylamino)-2-hydroxypropoxy]phenyl}-3-(4-fluoro-3-methylphenyl)acrylic acid methyl ester]	22.8
11.7	COC(=O)/C(=C/c1ccc(SC)cc1)c1ccc(OCC(O)CNCCOc2ccccc2OC)cc1 (stereo not drawn) [Example 23, 2-{4-[3-(2-Methoxyphenoxy-ethylamino)-2-hydroxy-propoxy]-phenyl}-3-(4-(methylthio)phenyl)-acrylic acid methyl ester]	54.2
27.8	COC(=O)/C(=C/c1ccccc1)c1ccc(OCC(O)CNCCOc2ccccc2OC)cc1 (stereo not drawn) [Example 25, 2-{4-[3-(2-Methoxyphenoxyethylamino)-2-hydroxypropoxy]phenyl}-3-phenylacrylic acid methyl ester]	20.5
12.1	COC(=O)/C(=C/c1ccc(F)cc1)c1ccc(OCC(O)CNCCOc2ccccc2OC)cc1 (stereo not drawn) [Example 26, 2-{4-[3-(2-Methoxyphenoxyethylamino)-2-hydroxypropoxy]phenyl}-3-(4-fluorophenyl)acrylic acid methyl ester]	36.2
6.5	COC(=O)/C(=C/c1ccc(Cl)cc1)c1ccc(OCC(O)CNCc2ccccc2)cc1 (stereo not drawn) [Example 27, 2-{4-[3-(Benzylamino)-2-hydroxypropoxy]phenyl}-3-(4-chlorophenyl)acrylic acid methyl ester]	32.7
